Data: patent publication US20260078346A1, “Cell Tissue Production Method, Application Method and Application Device” (NTN Corporation, priority 2022, published 2026)

Assays:
[1] = tested on: application tissue (myocardial tissue of iPS cardiomyocytes and normal human cardiac fibroblasts); assay: Ca2+ transient waveform change on addition of isoproterenol, application tissue; type: cell-based; conditions: increasing isoproterenol concentration (nM)
Protocol: (§1) After a myocardial tissue after being cultured for seven days was dyed, Ca^2+ transient measurement was performed from the viewpoint of checking a function of myocardial contraction. The measurement was performed for a myocardial tissue after culture (hereinafter described as “application tissue”) illustrated in FIG. 29 in this example and a planarly cultured tissue (hereinafter described as “2D tissue”) serving as a comparative example. In the myocardial tissue in the comparative example, iPS cardiomyocytes (iCell Cardiomyocyte 2) and normal human cardiac fibroblast were set to 4:1 in a number ratio. In the myocardial tissue in the comparative example, 50000 cells per one well were seeded and planarly cultured in the same culture medium as the culture medium of the application tissue obtained by the same application device as the application device in the second embodiment. A result of the Ca^2+ transient measurement is illustrated in the following Table 1.
(§2) Subsequently, a change in a Ca^2+ transient waveform at the time when isoproterenol that is a β adrenergic receptor agonist was added was evaluated. In general, the isoproterenol raises the heart rate and the contraction force of a cardiomyocyte. The contraction force of the cardiomyocyte has a correlation with the fluorescence intensity (AMP) of the Ca^2+ transient measurement. […]

[2] = tested on: 2D tissue (planarly cultured iPS cardiomyocytes and normal human cardiac fibroblasts); assay: Ca2+ transient waveform change on addition of isoproterenol, 2D tissue; type: cell-based; conditions: increasing isoproterenol concentration (nM)
Protocol: as §1, §2

SMILES: CC(C)NCC(O)c1ccc(O)c(O)c1 (stereo not shown) [isoproterenol]
- change in BPM when isoproterenol is added ([1]; FIG. 31): rose according to an increase in the isoproterenol concentration
- change in AMP (fluorescence intensity) when isoproterenol is added ([1]; FIG. 32): rose depending on the concentration of the isoproterenol
- change in BPM when isoproterenol is added ([2]; FIG. 31): rose according to an increase in the isoproterenol concentration
- change in AMP (fluorescence intensity) when isoproterenol is added ([2]; FIG. 32): did not rise much
